Experimental data as given in patent publication US6630469B2, “5-HT7 receptor antagonists” (Bristol-Myers Squibb Company, priority 2000, dated 2003).

Target: T1, human 5-HT7 receptor (Homo sapiens, UniProt P34969)
T1 construct: expressed in transfected cells; host or cells: CHO cells
Assay: 5-HT7 Receptor Binding Assay
Conditions: membranes of CHO cells expressing human 5-HT7 receptor; 1 nM 3H-5-carboxamidotryptamine; 25° C., 60 minutes
Protocol: 5-HT7 Receptor Binding Assay
Membranes are prepared for binding using the human 5-HT7 receptor expressed in CHO cells. Cells are collected and ruptured using a dounce homogenizer. The cells are spun at 18000× g for 10 minutes and the pellet is resuspended in assay buffer, frozen in liquid nitrogen and kept at −80° C. until the day of the assay.
A total of 30 ug protein is used per well. The assay is carried out in 96-deep-well plates. The assay buffer is 50 mM HEPES. The membrane preparation is incubated at 25° C. for 60 minutes with 0.1 nM to 1000 nM test compound and 1 nM ^3H-5-carboxamidotryptamine. 10 uM serotonin is used as blocking agent to determine non-specific binding. The reaction is terminated by the addition of 1 ml of ice cold 5OmM HEPES buffer and rapid filtration through a Brandel Cell Harvester using Whatman GF/B filters. The filter pads are counted in an LKB Trilux liquid scintillation counter. IC50 values are determined using non-linear regression by Exel-fit.

T1 sequence (P34969 whole entry): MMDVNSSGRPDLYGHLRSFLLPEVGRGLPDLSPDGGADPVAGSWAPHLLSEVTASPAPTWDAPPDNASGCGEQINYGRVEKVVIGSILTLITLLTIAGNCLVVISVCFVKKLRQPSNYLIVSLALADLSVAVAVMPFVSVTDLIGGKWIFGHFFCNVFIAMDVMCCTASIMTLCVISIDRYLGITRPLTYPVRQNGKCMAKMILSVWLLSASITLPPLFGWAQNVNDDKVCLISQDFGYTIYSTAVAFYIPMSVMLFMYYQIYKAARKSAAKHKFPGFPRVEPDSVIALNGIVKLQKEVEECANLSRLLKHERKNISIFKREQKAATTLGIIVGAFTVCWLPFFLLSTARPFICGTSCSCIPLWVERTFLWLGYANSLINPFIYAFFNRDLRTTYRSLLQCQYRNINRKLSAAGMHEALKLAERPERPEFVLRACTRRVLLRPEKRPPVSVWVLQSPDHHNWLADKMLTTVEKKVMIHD

**Q.** Which IC50 does the source give for `COc1cc(CCNc2nc(N)nc(N[C@@H](C)c3ccc([N+](=O)[O-])cc3)n2)ccc1O` [Compound 80, N^2-[2-(4-Hydroxy-3-methoxyphenyl)ethyl]-N^4-[(1S)-1-(4-nitrophenyl)ethyl]-1,3,5-triazine-2,4,6-triamine] here?
**A.** ≤ 50 nM

**Q.** For `C[C@H](Nc1cc(NCCOc2ccc(F)cc2)ncn1)c1ccccc1` [Example 16, N^4-[2-(4-Fluorophenoxy)ethyl]-N^6-[(1S)-1-phenylethyl]pyrimidine-4,6-diamine], which IC50 is on record?
**A.** ≤ 50 nM

**Q.** With `C[C@H](Nc1nc(N)nc(NCCc2ccc(F)cc2)n1)c1ccc(F)cc1` [Example 17, N^2-[(1S)-1-(4-Fluorophenyl)ethyl]-N^4-[2-(4-fluorophenyl)ethyl]-1,3,5-triazine-2,4,6-triamine] as the molecule, how does the IC50 read?
**A.** ≤ 50 nM

**Q.** How did the IC50 turn out when `C[C@H](Nc1nc(N)nc(NCCc2ccccn2)n1)c1ccc(F)cc1` [Example 18, N^2-[(1S)-1-(4-Fluorophenyl)ethyl]-N^4-[2-(2-pyridinyl)ethyl]-1,3,5-triazine-2,4,6-triamine] was run?
**A.** ≤ 50 nM

**Q.** With `Nc1nc(NCCc2ccccc2)nc(NCc2ccccc2Cl)n1` [N^2-(2-Chlorophenylmethyl)-N^4-(2-phenylethyl)-1,3,5-triazine-2,4,6-triamine] as the molecule, how does the IC50 read?
**A.** ≤ 50 nM

**Q.** How did the IC50 turn out when `c1ccc(CNc2ccnc(NCCOc3ccccc3)n2)cc1` [N^2-(2-Phenoxyethyl)-N^4-(phenylmethyl)pyrimidine-2,4-diamine] was run?
**A.** ≤ 50 nM

**Q.** Which IC50 does the source give for `FC(F)(F)c1cccc(CNc2ccnc(NCCOc3ccccc3)n2)c1` [N^2-(2-Phenoxyethyl)-N^4-[3-(trifluoromethyl)phenylmethyl]pyrimidine-2,4-diamine] here?
**A.** ≤ 50 nM

**Q.** Which IC50 does the source give for `FC(F)(F)c1ccc(CNc2ccnc(NCCOc3ccccc3)n2)cc1` [N^2-(2-Phenoxyethyl)-N^4-[4-(trifluoromethyl)phenylmethyl]pyrimidine-2,4-diamine] here?
**A.** 101 to 200 nM

**Q.** For `C[C@@H](Nc1ccnc(NCCOc2ccccc2)n1)c1ccccc1` [N^2-(2-Phenoxyethyl)-N^4-[(1R)-1-phenylethyl]pyrimidine-2,4-diamine], which IC50 is on record?
**A.** 101 to 200 nM

**Q.** For `CC[C@@H](Nc1ccnc(NCCOc2ccccc2)n1)c1ccccc1` [N^2-(2-Phenoxyethyl)-N^4-[(1R)-1-phenylpropyl]pyrimidine-2,4-diamine], which IC50 is on record?
**A.** 101 to 200 nM

**Q.** How did the IC50 turn out when `C[C@H](Nc1ccnc(NCCOc2ccccc2)n1)c1ccccc1` [N^2-(2-Phenoxyethyl)-N^4-[(1S)-1-phenylethyl]pyrimidine-2,4-diamine] was run?
**A.** ≤ 50 nM

**Q.** `CC[C@H](Nc1ccnc(NCCOc2ccccc2)n1)c1ccccc1` [N^2-(2-Phenoxyethyl)-N^4-[(1S)-1-phenylpropyl]pyrimidine-2,4-diamine] was tested. Which IC50 did it give?
**A.** ≤ 50 nM

**Q.** Which IC50 does the source give for `CC(Nc1ccnc(NCCSc2ccccc2)n1)c1ccccc1` (stereo not shown) [N^2-(2-Phenthioethyl)-N^4-(1-phenylethyl)pyrimidine-2,4-diamine] here?
**A.** 51 to 100 nM

**Q.** For `c1ccc(CCNc2nccc(NCc3ccncc3)n2)cc1` [N^2-(2-Phenylethyl)-N^4-(4-pyridinylmethyl)pyrimidine-2,4-diamine], which IC50 is on record?
**A.** 101 to 200 nM

**Q.** With `c1ccc(CCNc2nccc(NCc3ccccc3)n2)cc1` [N^2-(2-Phenylethyl)-N^4-(phenylmethyl)pyrimidine-2,4-diamine] as the molecule, how does the IC50 read?
**A.** ≤ 50 nM

**Q.** With `FC(F)(F)c1cccc(CNc2ccnc(NCCc3ccccc3)n2)c1` [N^2-(2-Phenylethyl)-N^4-[3-(trifluoromethyl)phenylmethyl]pyrimidine-2,4-diamine] as the molecule, how does the IC50 read?
**A.** ≤ 50 nM

**Q.** How did the IC50 turn out when `FC(F)(F)c1ccc(CNc2ccnc(NCCc3ccccc3)n2)cc1` [N^2-(2-Phenylethyl)-N^4-[4-(trifluoromethyl)phenylmethyl]pyrimidine-2,4-diamine] was run?
**A.** 101 to 200 nM

**Q.** Which IC50 does the source give for `C[C@@H](Nc1ccnc(NCCc2ccccc2)n1)c1ccccc1` [N^2-(2-Phenylethyl)-N^4-[(1R)-1-phenylethyl]pyrimidine-2,4-diamine] here?
**A.** 101 to 200 nM

**Q.** With `CC[C@@H](Nc1ccnc(NCCc2ccccc2)n1)c1ccccc1` [N^2-(2-Phenylethyl)-N^4-[(1R)-1-phenylpropyl]pyrimidine-2,4-diamine] as the molecule, how does the IC50 read?
**A.** 51 to 100 nM

**Q.** With `CC[C@H](Nc1ccnc(NCCc2ccccc2)n1)c1ccccc1` [N^2-(2-Phenylethyl)-N^4-[(1S)-1-phenylpropyl]pyrimidine-2,4-diamine] as the molecule, how does the IC50 read?
**A.** ≤ 50 nM

**Q.** `CC(Nc1ccnc(N(C)CCc2ccccc2)n1)c1ccccc1` (stereo not shown) [N^2-(Methyl)-N^2-(2-phenylethyl)-N^4-(1-phenylethyl)pyrimidine-2,4-diamine] was tested. Which IC50 did it give?
**A.** ≤ 50 nM

**Q.** How did the IC50 turn out when `CC(Nc1ccnc(NCCc2ccccc2F)n1)c1ccccc1` (stereo not shown) [N^2-[2-(2-Fluorophenyl)ethyl]-N^4-(1-phenylethyl)pyrimidine-2,4-diamine] was run?
**A.** ≤ 50 nM

**Q.** How did the IC50 turn out when `COc1ccccc1CCNc1nc(C)cc(N[C@@H](C)c2ccccc2)n1` [N^2-[2-(2-Methoxyphenyl)ethyl]-6-methyl-N^4-[(1S)-1-phenylethyl]pyrimidine-2,4-diamine] was run?
**A.** ≤ 50 nM

**Q.** Which IC50 does the source give for `COc1ccccc1CCNc1nccc(NC(C)c2ccccc2)n1` (stereo not shown) [N^2-[2-(2-Methoxyphenyl)ethyl]-N^4-(1-phenylethyl)pyrimidine-2,4-diamine] here?
**A.** 51 to 100 nM

**Q.** With `CC(Nc1ccnc(NCCc2ccc(Cl)c(Cl)c2)n1)c1ccccc1` (stereo not shown) [N^2-[2-(3,4-Dichlorophenyl)ethyl]-N^4-(1-phenylethyl)pyrimidine-2,4-diamine] as the molecule, how does the IC50 read?
**A.** 51 to 100 nM

**Q.** Which IC50 does the source give for `COc1cc(CCNc2nc(C)cc(N[C@@H](C)c3ccccc3)n2)cc(OC)c1` [N^2-[2-(3,5-Dimethoxyphenyl)ethyl]-6-methyl-N^4-[(1S)-1-phenylethyl]pyrimidine-2,4-diamine] here?
**A.** 51 to 100 nM

**Q.** `CC(=O)Nc1cccc(CCNc2nc(C)cc(N[C@@H](C)c3ccccc3)n2)c1` [N^2-[2-(3-Acetamidophenyl)ethyl]-6-methyl-N^4-[(1S)-1-phenylethyl]pyrimidine-2,4-diamine] was tested. Which IC50 did it give?
**A.** 101 to 200 nM

**Q.** How did the IC50 turn out when `COc1ccc(CCNc2nc(C)cc(N[C@@H](C)c3ccccc3)n2)cc1Br` [N^2-[2-(3-Bromo-4-methoxyphenyl)ethyl]-6-methyl-N^4-[(1S)-1-phenylethyl]pyrimidine-2,4-diamine] was run?
**A.** 51 to 100 nM

**Q.** Which IC50 does the source give for `Cc1cc(N[C@@H](C)c2ccccc2)nc(NCCc2cccc(Br)c2)n1` [N^2-[2-(3-Bromophenyl)ethyl]-6-methyl-N^4-[(1S)-1-phenylethyl]pyrimidine-2,4-diamine] here?
**A.** ≤ 50 nM

**Q.** How did the IC50 turn out when `CC(Nc1ccnc(NCCc2cccc(Cl)c2)n1)c1ccccc1` (stereo not shown) [N^2-[2-(3-Chlorophenyl)ethyl]-N^4-(1-phenylethyl)pyrimidine-2,4-diamine] was run?
**A.** ≤ 50 nM

**Q.** Which IC50 does the source give for `Cc1cc(N[C@@H](C)c2ccccc2)nc(NCCc2cccc(C#N)c2)n1` [N^2-[2-(3-Cyanophenyl)ethyl]-6-methyl-N^4-[(1S)-1-phenylethyl]pyrimidine-2,4-diamine] here?
**A.** ≤ 50 nM

**Q.** For `Cc1cc(N[C@@H](C)c2ccccc2)nc(NCCc2cccc(F)c2)n1` [N^2-[2-(3-Fluorophenyl)ethyl]-6-methyl-N^4-[(1S)-1-phenylethyl]pyrimidine-2,4-diamine], which IC50 is on record?
**A.** ≤ 50 nM

**Q.** How did the IC50 turn out when `CC(Nc1ccnc(NCCc2cccc(F)c2)n1)c1ccccc1` (stereo not shown) [N^2-[2-(3-Fluorophenyl)ethyl]-N^4-(1-phenylethyl)pyrimidine-2,4-diamine] was run?
**A.** ≤ 50 nM

**Q.** With `COc1cccc(CCNc2nc(C)cc(N[C@@H](C)c3ccccc3)n2)c1` [N^2-[2-(3-Methoxyphenyl)ethyl]-6-methyl-N^4-[(1S)-1-phenylethyl]pyrimidine-2,4-diamine] as the molecule, how does the IC50 read?
**A.** ≤ 50 nM

**Q.** `COc1cccc(CCNc2nccc(NC(C)c3ccccc3)n2)c1` (stereo not shown) [N^2-[2-(3-Methoxyphenyl)ethyl]-N^4-(1-phenylethyl)pyrimidine-2,4-diamine] was tested. Which IC50 did it give?
**A.** ≤ 50 nM

**Q.** How did the IC50 turn out when `CC(Nc1ccnc(NCCc2cccc3c2OCO3)n1)c1ccccc1` (stereo not shown) [N^2-[2-(4-Benzodioxolyl)ethyl]-N^4-(1-phenylethyl)pyrimidine-2,4-diamine] was run?
**A.** 101 to 200 nM

**Q.** For `Cc1cc(N[C@@H](C)c2ccccc2)nc(NCCc2ccc(Cl)cc2)n1` [N^2-[2-(4-Chlorophenyl)ethyl]-6-methyl-N^4-[(1S)-1-phenylethyl]pyrimidine-2,4-diamine], which IC50 is on record?
**A.** ≤ 50 nM

**Q.** `CC(Nc1ccnc(NCCc2ccc(Cl)cc2)n1)c1ccccc1` (stereo not shown) [N^2-[2-(4-Chlorophenyl)ethyl]-N^4-(1-phenylethyl)pyrimidine-2,4-diamine] was tested. Which IC50 did it give?
**A.** 51 to 100 nM

**Q.** How did the IC50 turn out when `CC(Nc1ccnc(NCCc2ccc(F)cc2)n1)c1ccccc1` (stereo not shown) [N^2-[2-(4-Fluorophenyl)ethyl]-N^4-(1-phenylethyl)pyrimidine-2,4-diamine] was run?
**A.** ≤ 50 nM

**Q.** For `CC(Nc1ccnc(NCCc2ccc(O)cc2)n1)c1ccccc1` (stereo not shown) [N^2-[2-(4-Hydroxyphenyl)ethyl]-N^4-(1-phenylethyl)pyrimidine-2,4-diamine], which IC50 is on record?
**A.** ≤ 50 nM

**Q.** With `COc1ccc(CCNc2nc(C)cc(N[C@@H](C)c3ccccc3)n2)cc1` [N^2-[2-(4-Methoxyphenyl)ethyl]-6-methyl-N^4-[(1S)-1-phenylethyl]pyrimidine-2,4-diamine] as the molecule, how does the IC50 read?
**A.** 101 to 200 nM

**Q.** `COc1ccc(CCNc2nccc(NC(C)c3ccccc3)n2)cc1` (stereo not shown) [N^2-[2-(4-Methoxyphenyl)ethyl]-N^4-(1-phenylethyl)pyrimidine-2,4-diamine] was tested. Which IC50 did it give?
**A.** 101 to 200 nM

**Q.** Which IC50 does the source give for `Cc1ccc(CCNc2nc(C)cc(N[C@@H](C)c3ccccc3)n2)cc1` [N^2-[2-(4-Methylphenyl)ethyl]-6-methyl-N^4-[(1S)-1-phenylethyl]pyrimidine-2,4-diamine] here?
**A.** ≤ 50 nM

**Q.** `Cc1ccc(CCNc2nccc(NC(C)c3ccccc3)n2)cc1` (stereo not shown) [N^2-[2-(4-Methylphenyl)ethyl]-N^4-(1-phenylethyl)pyrimidine-2,4-diamine] was tested. Which IC50 did it give?
**A.** ≤ 50 nM

**Q.** How did the IC50 turn out when `CC(C)(Nc1ccnc(NCCc2ccccc2)n1)c1ccccc1` [N^4-(1-Methyl-1-phenyl)ethyl)-N^2-(2-phenylethyl)pyrimidine-2,4-diamine] was run?
**A.** ≤ 50 nM

**Q.** With `CC(CNc1nccc(NC(C)c2ccccc2)n1)c1ccccc1` (stereo not shown) [N^4-(1-Phenylethyl)-N^2-(2-phenylpropyl)pyrimidine-2,4-diamine] as the molecule, how does the IC50 read?
**A.** 51 to 100 nM
